Measurements: the NIST ThermoML archive (doi:10.1016/j.jct.2009.06.011)
Numbers after ± are expanded uncertainties.

experiment: activity coefficient (dimensionless); of the first substance listed, at infinite dilution; xn = mol fraction of the nth substance listed; details: 318.15 K; 101 kPa; Liquid; Chromatography; x1 = 0

| SMILES | activity coefficient |
| --- | --- |
| C=CCCC [1-pentene] + CCCC[n+]1ccc(C)cc1.O=S(=O)([N-]S(=O)(=O)C(F)(F)F)C(F)(F)F | 5.42 ± 0.37 |
| C#CCCC [1-pentyne] + CCCC[n+]1ccc(C)cc1.O=S(=O)([N-]S(=O)(=O)C(F)(F)F)C(F)(F)F | 1.84 ± 0.12 |
| COC(C)(C)C [2-methoxy-2-methylpropane] + CCCC[n+]1ccc(C)cc1.O=S(=O)([N-]S(=O)(=O)C(F)(F)F)C(F)(F)F | 2.03 ± 0.14 |
| CC(C)=O [acetone] + CCCC[n+]1ccc(C)cc1.O=S(=O)([N-]S(=O)(=O)C(F)(F)F)C(F)(F)F | 0.415 ± 0.035 |
| c1ccccc1 [benzene] + CCCC[n+]1ccc(C)cc1.O=S(=O)([N-]S(=O)(=O)C(F)(F)F)C(F)(F)F | 0.719 ± 0.048 |
| CCCCO [butan-1-ol] + CCCC[n+]1ccc(C)cc1.O=S(=O)([N-]S(=O)(=O)C(F)(F)F)C(F)(F)F | 2.26 ± 0.15 |
| C1CCCCCC1 [cycloheptane] + CCCC[n+]1ccc(C)cc1.O=S(=O)([N-]S(=O)(=O)C(F)(F)F)C(F)(F)F | 9.45 ± 0.64 |
| C1CCCCC1 [cyclohexane] + CCCC[n+]1ccc(C)cc1.O=S(=O)([N-]S(=O)(=O)C(F)(F)F)C(F)(F)F | 7.76 ± 0.53 |
| C1CCCCCCC1 [cyclooctane] + CCCC[n+]1ccc(C)cc1.O=S(=O)([N-]S(=O)(=O)C(F)(F)F)C(F)(F)F | 12 ± 0.8 |
| C1CCCC1 [cyclopentane] + CCCC[n+]1ccc(C)cc1.O=S(=O)([N-]S(=O)(=O)C(F)(F)F)C(F)(F)F | 5.89 ± 0.4 |
| CCCCCCCCCC [decane] + CCCC[n+]1ccc(C)cc1.O=S(=O)([N-]S(=O)(=O)C(F)(F)F)C(F)(F)F | 45 ± 3.1 |
| CCOCC [diethyl ether] + CCCC[n+]1ccc(C)cc1.O=S(=O)([N-]S(=O)(=O)C(F)(F)F)C(F)(F)F | 2.08 ± 0.14 |
| CCCOCCC [dipropyl ether] + CCCC[n+]1ccc(C)cc1.O=S(=O)([N-]S(=O)(=O)C(F)(F)F)C(F)(F)F | 4.71 ± 0.32 |
| CCO [ethanol] + CCCC[n+]1ccc(C)cc1.O=S(=O)([N-]S(=O)(=O)C(F)(F)F)C(F)(F)F | 1.56 ± 0.1 |
| CCc1ccccc1 [ethylbenzene] + CCCC[n+]1ccc(C)cc1.O=S(=O)([N-]S(=O)(=O)C(F)(F)F)C(F)(F)F | 1.45 ± 0.1 |
| CCCCCCC [heptane] + CCCC[n+]1ccc(C)cc1.O=S(=O)([N-]S(=O)(=O)C(F)(F)F)C(F)(F)F | 17.7 ± 1.2 |
| C=CCCCC [hex-1-ene] + CCCC[n+]1ccc(C)cc1.O=S(=O)([N-]S(=O)(=O)C(F)(F)F)C(F)(F)F | 6.82 ± 0.47 |
| CCCCCC [hexane] + CCCC[n+]1ccc(C)cc1.O=S(=O)([N-]S(=O)(=O)C(F)(F)F)C(F)(F)F | 13.5 ± 0.9 |
| CO [methanol] + CCCC[n+]1ccc(C)cc1.O=S(=O)([N-]S(=O)(=O)C(F)(F)F)C(F)(F)F | 1.27 ± 0.08 |
| CCCCCCCCC [nonane] + CCCC[n+]1ccc(C)cc1.O=S(=O)([N-]S(=O)(=O)C(F)(F)F)C(F)(F)F | 32.3 ± 2.2 |

same assay, conditions: 328.15 K; 101 kPa; Liquid; Chromatography; x1 = 0

| SMILES | activity coefficient |
| --- | --- |
| Cc1ccccc1C [1,2-dimethylbenzene] + CCCC[n+]1ccc(C)cc1.O=S(=O)([N-]S(=O)(=O)C(F)(F)F)C(F)(F)F | 1.24 ± 0.08 |
| Cc1cccc(C)c1 [1,3-dimethylbenzene] + CCCC[n+]1ccc(C)cc1.O=S(=O)([N-]S(=O)(=O)C(F)(F)F)C(F)(F)F | 1.38 ± 0.09 |
| Cc1ccc(C)cc1 [1,4-dimethylbenzene] + CCCC[n+]1ccc(C)cc1.O=S(=O)([N-]S(=O)(=O)C(F)(F)F)C(F)(F)F | 1.38 ± 0.09 |
| C=CCCCCC [1-heptene] + CCCC[n+]1ccc(C)cc1.O=S(=O)([N-]S(=O)(=O)C(F)(F)F)C(F)(F)F | 8.82 ± 0.6 |
| C#CCCCCC [1-heptyne] + CCCC[n+]1ccc(C)cc1.O=S(=O)([N-]S(=O)(=O)C(F)(F)F)C(F)(F)F | 3.26 ± 0.22 |
| C#CCCCC [1-hexyne] + CCCC[n+]1ccc(C)cc1.O=S(=O)([N-]S(=O)(=O)C(F)(F)F)C(F)(F)F | 2.44 ± 0.17 |
| C#CCCCCCC [1-octyne] + CCCC[n+]1ccc(C)cc1.O=S(=O)([N-]S(=O)(=O)C(F)(F)F)C(F)(F)F | 4.38 ± 0.3 |
| C=CCCC [1-pentene] + CCCC[n+]1ccc(C)cc1.O=S(=O)([N-]S(=O)(=O)C(F)(F)F)C(F)(F)F | 5.24 ± 0.36 |
| C#CCCC [1-pentyne] + CCCC[n+]1ccc(C)cc1.O=S(=O)([N-]S(=O)(=O)C(F)(F)F)C(F)(F)F | 1.87 ± 0.13 |
| COC(C)(C)C [2-methoxy-2-methylpropane] + CCCC[n+]1ccc(C)cc1.O=S(=O)([N-]S(=O)(=O)C(F)(F)F)C(F)(F)F | 2.06 ± 0.14 |
| CC(C)=O [acetone] + CCCC[n+]1ccc(C)cc1.O=S(=O)([N-]S(=O)(=O)C(F)(F)F)C(F)(F)F | 0.423 ± 0.035 |
| c1ccccc1 [benzene] + CCCC[n+]1ccc(C)cc1.O=S(=O)([N-]S(=O)(=O)C(F)(F)F)C(F)(F)F | 0.735 ± 0.049 |
| CCCCO [butan-1-ol] + CCCC[n+]1ccc(C)cc1.O=S(=O)([N-]S(=O)(=O)C(F)(F)F)C(F)(F)F | 2.05 ± 0.14 |
| C1CCCCCC1 [cycloheptane] + CCCC[n+]1ccc(C)cc1.O=S(=O)([N-]S(=O)(=O)C(F)(F)F)C(F)(F)F | 8.9 ± 0.61 |
| C1CCCCC1 [cyclohexane] + CCCC[n+]1ccc(C)cc1.O=S(=O)([N-]S(=O)(=O)C(F)(F)F)C(F)(F)F | 7.31 ± 0.5 |
| C1CCCCCCC1 [cyclooctane] + CCCC[n+]1ccc(C)cc1.O=S(=O)([N-]S(=O)(=O)C(F)(F)F)C(F)(F)F | 11.2 ± 0.8 |
| C1CCCC1 [cyclopentane] + CCCC[n+]1ccc(C)cc1.O=S(=O)([N-]S(=O)(=O)C(F)(F)F)C(F)(F)F | 5.59 ± 0.38 |
| CCCCCCCCCC [decane] + CCCC[n+]1ccc(C)cc1.O=S(=O)([N-]S(=O)(=O)C(F)(F)F)C(F)(F)F | 41.1 ± 2.8 |
| CCOCC [diethyl ether] + CCCC[n+]1ccc(C)cc1.O=S(=O)([N-]S(=O)(=O)C(F)(F)F)C(F)(F)F | 2.08 ± 0.14 |
| CCCOCCC [dipropyl ether] + CCCC[n+]1ccc(C)cc1.O=S(=O)([N-]S(=O)(=O)C(F)(F)F)C(F)(F)F | 4.62 ± 0.31 |
| CCO [ethanol] + CCCC[n+]1ccc(C)cc1.O=S(=O)([N-]S(=O)(=O)C(F)(F)F)C(F)(F)F | 1.43 ± 0.09 |
| CCc1ccccc1 [ethylbenzene] + CCCC[n+]1ccc(C)cc1.O=S(=O)([N-]S(=O)(=O)C(F)(F)F)C(F)(F)F | 1.48 ± 0.1 |
| CCCCCCC [heptane] + CCCC[n+]1ccc(C)cc1.O=S(=O)([N-]S(=O)(=O)C(F)(F)F)C(F)(F)F | 16.6 ± 1.1 |
| C=CCCCC [hex-1-ene] + CCCC[n+]1ccc(C)cc1.O=S(=O)([N-]S(=O)(=O)C(F)(F)F)C(F)(F)F | 6.58 ± 0.45 |
| CCCCCC [hexane] + CCCC[n+]1ccc(C)cc1.O=S(=O)([N-]S(=O)(=O)C(F)(F)F)C(F)(F)F | 12.7 ± 0.9 |
| CO [methanol] + CCCC[n+]1ccc(C)cc1.O=S(=O)([N-]S(=O)(=O)C(F)(F)F)C(F)(F)F | 1.17 ± 0.07 |
| CCCCCCCCC [nonane] + CCCC[n+]1ccc(C)cc1.O=S(=O)([N-]S(=O)(=O)C(F)(F)F)C(F)(F)F | 29.8 ± 2 |

same assay, conditions: 338.15 K; 101 kPa; Liquid; Chromatography; x1 = 0

| SMILES | activity coefficient |
| --- | --- |
| Cc1ccccc1C [1,2-dimethylbenzene] + CCCC[n+]1ccc(C)cc1.O=S(=O)([N-]S(=O)(=O)C(F)(F)F)C(F)(F)F | 1.27 ± 0.08 |
| Cc1cccc(C)c1 [1,3-dimethylbenzene] + CCCC[n+]1ccc(C)cc1.O=S(=O)([N-]S(=O)(=O)C(F)(F)F)C(F)(F)F | 1.42 ± 0.09 |
| Cc1ccc(C)cc1 [1,4-dimethylbenzene] + CCCC[n+]1ccc(C)cc1.O=S(=O)([N-]S(=O)(=O)C(F)(F)F)C(F)(F)F | 1.42 ± 0.09 |
| C=CCCCCC [1-heptene] + CCCC[n+]1ccc(C)cc1.O=S(=O)([N-]S(=O)(=O)C(F)(F)F)C(F)(F)F | 8.51 ± 0.58 |
| C#CCCCCC [1-heptyne] + CCCC[n+]1ccc(C)cc1.O=S(=O)([N-]S(=O)(=O)C(F)(F)F)C(F)(F)F | 3.27 ± 0.22 |
